Measured values as given in patent publication US10233447B2, “Self-cleaving ribozymes and uses thereof” (The Children s Medical Center Corporation, priority 2003, dated 2019).
Where “and” joins values, the source holds several entries; their conditions need not be identical. Identical values can stand only once. Entries after “also recorded” stand apart in the source; their conditions may differ.

Legend:
N79 rz = assay: microbe, parasite or virus in culture; assay type: cell-based, Schistosoma mansoni; settings: for EC50 / maximal fold induction / Foldmax: inhibition of ribozyme activity in cells; for maximal fold induction: read-out: Foldmax; for luciferase protein expression / induced gene expression: double N79 rz; for luciferase activity, emission: untreated 1,555, background 121
double functional N79 rz = assay: In vivo induction of luciferase in retina injected with AAV carrying double N79 rz, bioluminescent imaging; set-up: species or system nude mice; settings: for luciferase expression in retina: mice with AAV carrying double functional N79, drug pellet, day 2
Description: FIG. 4 show effective control of gene expression in vivo using rz-based gene regulation system. […] AAV injection was done 3 weeks prior to the first imaging day (day 0). Drug-releasing pellets were implanted subcutaneously in the dorsal neck immediately after the first imaging, and released the drug over 7 days. The toyocamycin pellet contains 10 μg of drug; adenosine pellet 50 μg.
Having documented the ability of the rz-based regulation system to function in mammalian cell culture, a final important issue to be addressed was whether the intracellular machinery and ‘environment’ necessary for self-cleavage was operable in primary cells in vivo. […] After 21 days, the injected animals were imaged for luciferase gene expression using the Xenogen IVIS imager, which provides a quantitative measure ofluciferase expression based on single-photon detection (Contag, et al., 1998, Nat Med 4, 245-7). […] Two days later, all animals were then imaged for luciferase expression. […] Quantification of the photon output indicated gene expression was ‘induced’ 39, 185, and 191-fold in the three mice infected with virus carrying the functional rzs and treated with toyocamycin. […] While the retina may be particularly accessible to ‘inducer’ due to its extensive vascularization, Applicants have shown in preliminary experiments that gene regulation can be accomplished at a number of other anatomical sites in vivo (e.g., muscle and ear).
Prior to imaging, the anesthetized mice were injected with 150 μl of luciferin (30 mg/ml) and the pupils were moistened and dilated with 1% tropicamide. A series of bioluminescent images were taken for up to 30 minutes using the Xenogen IVIS imager. Photon output was quantified at the plateau of the time course using the LivingImage software. Induction in fold was calculated based on the photon output in the retina before and after drug treatment, and was normalized to the photon output from the leg muscles. Adenosine was purchased from Innovative Research of America.

293 cells = assay: Transient transfection LacZ reporter assay of ribozyme self-cleavage; assay type: cell-based; settings: for Fold (suppression in reporter gene expression relative to the vector with inactive rz): pMD LacZ vector, functional vs inactive rz, fold=1 means no effect
Source text: The approach is critically dependent upon both the ability of a specific self-cleaving ribozyme (rz) to effect the highly efficient cleavage (>99%) of an mRNA molecule into which it is embedded, and the availability of a small molecule capable of efficiently inhibiting self-cleavage of the cis-acting rz within an intracellular milieu. A first step in our studies was to identify candidate rz sequences capable of efficient cleavage in mammalian cells in the context of an ‘expression’ vector. For this purpose, Applicantsmade use of a transient transfection assay involving a standard mammalian expression vector (Ory, et al., 1996, Proc Natl Acad Sci USA 93, 11400-6) which encodes a LacZ reporter (FIG. 1b). […] After transfection of 293 cells with these vectors, protein extracts were prepared from cells and the β-gal level quantified.
1.5 μl Fugene-6 (Roche, Basel, Switzerland) was diluted in 100 μl OPTIMEM (Gibco, Carlsbad, Calif.) and incubated for 5 minutes at room temperature. This solution was added dropwise to 0.45 μg plasmid DNA and incubated for 15 minutes. The plasmid DNA contains either a wildtype or a mutant ribozyme and a Lacz reporter gene. The DNA mixture was then added dropwise to 3×10^5 HEK 293 cells (plated the previous day in a 35 mm dish). Cells were harvested for β-galactosidase assay 24 hours following transfection.
Plasmids carrying different ribozymes were transfected into HEK293T cells and lysed 24 h later. The cell extracts were incubated with ONPG, and the amount of B-galactosidase in cell extracts was measured by quantifying the processed ONPG using a luminometer.
Cleaving activity was determined by comparing the level of −galactosidase measured in the test sample to a control comprising a point mutation (A-+G) at position 14 which attenuates ribozyme activity. Briefly, transfected HEK293 cells were lysed with a lysis solution and the extracts of cells were separated from cell debris. The extracts were then incubated with ONPG, a chromogenic substrate of β-galactosidase. […] The intensity of yellow light emission was measured with a luminometer (Miller J., Experiments in Molecular Genetics, Cold Spring Harbor Laboratory, Cold Spring Harbor, N.Y. (1972)).

[1] = tested on: self-cleavage of full length ribozymes; assay: Catalytic rate measurement of in vitro transcribed ribozymes; assay type: biochemical; settings: 50 mM Tris-HCl pH7.5, 23° C.
Description: Ribozymes were generated by in vitro transcription in the presence of 50 uM blocking antisense oligos. Full length ribozymes were purified and the cleavage rate determined in 50 mM Tris-HCI, pH7.5 at 23° C. Kobs was calculated according to the equation F1=F0+F∞(l−e^kt).

[2] = tested on: a variety of other commonly used cell lines; assay: Transfection of N79 rz vector into other cell lines; assay type: cell-based; settings: after transfection
Source text: (a) and (b) N79 functioned efficiently in a variety of cell types. Numbers are the measurements of β-gal expressed. (c) N79 functioned efficiently at some but not all positions within the vector. […] The ±signs indicate standard deviation from mean of at least four independent measurements.
In addition, the N79 rz was able to function efficiently when placed within other transcriptional units which made use of different promoters and a different reporter gene (eGFP) (FIG. 2b). As Applicants had observed in the primary screen of different rz motifs for activity in mammalian cells, N79 was able to function when placed in several, but not all locations of the pMD transcriptional unit, albeit at different efficiencies (FIG. 2c). Importantly, placement of two rz sequences in tandem, in some cases (e.g., E position) led to a dramatic suppression of reporter gene expression (FIG. 2c).

[3] = rz inserted at position A of pMD vector

O=c1[nH]c(=O)n([C@@H]2O[C@H](CO)[C@@H](O)[C@H]2O)cc1Br [5-BromoUridine] gave an EC50 (N79 rz; Schistosoma mansoni) of 267 µM and a maximal fold induction (N79 rz; Schistosoma mansoni) of 16.

With O=c1[nH]cc(F)c(=O)[nH]1 [5-FluoroUracil] the EC50 (N79 rz; Schistosoma mansoni) was 200 µM, the maximal fold induction (N79 rz; Schistosoma mansoni) was 377 and the “luciferase protein expression / induced gene expression” value (N79 rz; stable cell line) was “induced gene expression”.

With O=c1[nH]c(=O)n([C@@H]2O[C@H](CO)[C@@H](O)[C@H]2O)cc1F [5-FluoroUridine] the EC50 (N79 rz; Schistosoma mansoni) was 5.9 µM, the maximal fold induction (N79 rz; Schistosoma mansoni) was 120 and the “luciferase protein expression / induced gene expression” value (N79 rz; stable cell line) was “induced gene expression”.

In the case of Nc1ncnc2c1nnn2[C@@H]1O[C@H](CO)[C@@H](O)[C@H]1O [8-Azaadenosine], the EC50 (N79 rz; Schistosoma mansoni) is reported as 4 µM and the maximal fold induction (N79 rz; Schistosoma mansoni) is reported as 45.

For CN(C)c1ccc2cc3ccc(N(C)C)cc3nc2c1 [Acridine orange], the EC50 (N79 rz; Schistosoma mansoni) was 7 µM and the maximal fold induction (N79 rz; Schistosoma mansoni) was 4.

For CC[n+]1c(-c2ccccc2)c2cc(N)ccc2c2ccc(N)cc21 [Homidium bromide], the EC50 (N79 rz; Schistosoma mansoni) was 2 µM and the maximal fold induction (N79 rz; Schistosoma mansoni) was 8.

OC[C@H]1O[C@@H](n2cnc3cncnc32)[C@H](O)[C@@H]1O [Nebularine] gave an EC50 (N79 rz; Schistosoma mansoni) of 10 µM and a maximal fold induction (N79 rz; Schistosoma mansoni) of 8.

NC(=O)c1cn([C@@H]2O[C@H](CO)[C@@H](O)[C@H]2O)c2ncnc(N)c12 [Sangivamycin] showed an EC50 (N79 rz; Schistosoma mansoni) of 1 µM and a maximal fold induction (N79 rz; Schistosoma mansoni) of 38.

In the case of N#Cc1cn([C@@H]2O[C@H](CO)[C@@H](O)[C@H]2O)c2ncnc(N)c12 [Toyocamycin], the “luciferase activity, emission” value (N79 rz; 0.5 μM, 24 hours) is reported as 66,774 photons per second per 1000 cells, the “luciferase activity, emission” value (N79 rz; 1 μM, 24 hours) is reported as 242,546 photons per second per 1000 cells and the “luciferase activity, emission” value (N79 rz; 1.5 μM, 24 hours) is reported as 377,655 photons per second per 1000 cells. The EC50 (N79 rz; Schistosoma mansoni) was 0.4 µM, the maximal fold induction (N79 rz; Schistosoma mansoni) was 365 and the “amount of luciferase mRNA” value (N79 rz; northern blot, nucleus and cytoplasm, 24 hours of treatment) was “increased to a level comparable to that of cells carrying inactive rz”. The “concentrations at which toxic effects were observed” value (N79 rz; stable cell line, 24 hours) was “higher than 1.5 μM”, the “luciferase protein expression / induced gene expression” value (N79 rz; stable cell line) was “dramatic increase” and the “induced gene expression level relative to virus carrying inactive rzs” value (double functional N79 rz; animal showing 191-fold induction) was no more than 40%. The “gene expression 'induced', photon output in retina” value (double functional N79 rz; individual mice, functional rzs, 10 μg pellet subcutaneous, day 2, normalized to leg muscles) was 39 fold and 185 fold and 191 fold and the “luciferase expression in retina” value (double functional N79 rz) was “readily detectable expression; also recorded: strong induction”.

In the case of Nc1ncnc2c1ccn2[C@@H]1O[C@@H]2COP(=O)(O)O[C@H]2[C@H]1O [Tubercidin-cyclic monophosphate], the EC50 (N79 rz) is reported as 34 µM and the Foldmax (N79 rz) is reported as 35 fold.

In the case of Nc1ncnc2c1ccn2[C@@H]1O[C@H](COP(=O)(O)O)[C@@H](O)[C@H]1O [Tubercidin-monophosphate], the EC50 (N79 rz) is reported as 2 µM and the Foldmax (N79 rz) is reported as 39 fold.

Nc1ncnc2c1ccn2[C@@H]1O[C@H](COP(=O)(O)OP(=O)(O)OP(=O)(O)O)[C@@H](O)[C@H]1O [Tubercidin-triphosphate] gave an EC50 (N79 rz; Schistosoma mansoni) of 2 µM and a maximal fold induction (N79 rz; Schistosoma mansoni) of 35.

Nc1ncnc2c1ccn2[C@@H]1O[C@H](CO)[C@@H](O)[C@H]1O [Tubercidin] showed an EC50 (N79 rz; Schistosoma mansoni) of 2.5 µM and a maximal fold induction (N79 rz; Schistosoma mansoni) of 58.

For Nc1ncnc2c1ncn2[C@@H]1O[C@H](CO)[C@@H](O)[C@H]1O [adenosine], the “ability to inhibit rz self-cleavage” value (N79 rz) was “no ability” and the “luciferase expression in retina” value (double functional N79 rz) was “little if any gene expression”.

In the case of “N94: N79 with shortened stem I, SEQ ID NO: 8 (CCAGCUGAUGAGUCCCAAAUAGGACGAAACGCGCUUCGGUGCGUCCUGG; expressed or natural sequence)”, the “cleavage activity, fold difference between functional and inactive rz” value (293 cells; rz at position E of pMD vector) is reported as “vastly reduced”.

B1: TRSV hammerhead: naturally occurring ribozyme, SEQ ID NO: 53 (nucleic acid)
chain: AUACCCUGUCACCGGAUGUGCUUUCCGGUCUGAUGAGUCCGUGAGGACGAAACAGGACUGUC
modifications: expressed or natural sequence
B1 was tested, and the “Fold (suppression in reporter gene expression relative to the vector with inactive rz)” value (293 cells) was 1 fold.

B2: Schisto hammerhead: original hammerhead Sml rz of Schistosoma mansoni lacking loop III, SEQ ID NO: 2 (nucleic acid)
chain: CUGAGAUGCAGGUACAUCCAGCUGACGAGUCCCAAAUAGGACGAAACGCGCGUCCUGGAUUCCACUGCUAUCCAC
modifications: expressed or natural sequence
With B2 the “Fold (suppression in reporter gene expression relative to the vector with inactive rz)” value (293 cells) was 1 fold and the “cleavage activity, fold difference between functional and inactive rz” value (293 cells; [3]) was “no activity”.

B3: N93: N79 with shortened stem I, SEQ ID NO: 7 (nucleic acid)
chain: AGGUACAUCCAGCUGAUGAGUCCCAAAUAGGACGAAACGCGCUUCGGUGCGUCCUGGAUUCCACU
modifications: expressed or natural sequence
B3 was tested, and the “cleavage activity, fold difference between functional and inactive rz” value (293 cells; rz at position E of pMD vector) was “vastly reduced”.

B4: N79: N73 ribozyme transferred to position E of the vector, SEQ ID NO: 5 (nucleic acid)
chain: CUGAGAUGCAGGUACAUCCAGCUGAUGAGUCCCAAAUAGGACGAAACGCGCUUCGGUGCGUCCUGGAUUCCACUGCUAUCCAC
With B4 the “cleavage activity, fold difference between functional and inactive rz” value (293 cells; rz at position E of pMD vector) was 225 fold, the Kobs ([1]; 0.5 mM Mg++) was 0.84 ^−min and the Kobs ([1]; 10 mM Mg++) was 0.84 ^−min. For the same molecule, the B-gal expression [2] was “dramatically reduced”.

B5: N99: N79 with changes in stem I near the core, SEQ ID NO: 6 (nucleic acid)
chain: CUGAGAUGCAGGUACAUCCCACUGAUGAGUCCCAAAUAGGACGAAACGCGCUUCGGUGCGUCUGGGAUUCCACUGCUAUCCAC
modifications: expressed or natural sequence
B5 was tested, and the “cleavage activity, fold difference between functional and inactive rz” value (293 cells; rz at position E of pMD vector) was “further enhanced activity”.

B6: N117: N79 variant changed near the restriction insertion site, SEQ ID NO: 6 (nucleic acid)
chain: CUGAGAUGCAGGUACAUCCCACUGAUGAGUCCCAAAUAGGACGAAACGCGCUUCGGUGCGUCUGGGAUUCCACUGCUAUCCAC
modifications: expressed or natural sequence
For B6, the “cleavage activity, fold difference between functional and inactive rz” value (293 cells; rz at position E of pMD vector) was “further enhanced activity”.

B7: Cricket hammerhead: hammerhead Pst-3 rz from the Dolichopoda cave cricket, SEQ ID NO: 1 (nucleic acid)
chain: AUGUGUGUUCCCUCUGCCCCGCUGAUGAGGUCGGGGAGACCGAAAGGGUCAACUCUACGGGGCUAUUACAUGCAAU
modifications: expressed or natural sequence
For B7, the “Fold (suppression in reporter gene expression relative to the vector with inactive rz)” value (293 cells) was 13 fold and the “cleavage activity, fold difference between functional and inactive rz” value (293 cells; [3]) was 13 fold.

B8: N27: Sml with tetraloop 5′-UUCG-3′ grafted onto extended stem III, SEQ ID NO: 3 (nucleic acid)
chain: CUGAGAUGCAGGUACAUCCAGCUGACGAGUCCCAAAUAGGACGAAACGCCUUCGGGCGUCCUGGAUUCCACUGCUAUCCAC
modifications: expressed or natural sequence
In the case of B8, the “Fold (suppression in reporter gene expression relative to the vector with inactive rz)” value (293 cells) is reported as 19 fold and the “cleavage activity, fold difference between functional and inactive rz” value (293 cells; [3]) is reported as 19 fold.
